Reference: PubChem BioAssay AID1963875 (Molecular Pharmacology Branch, DTP, NCI, 2024)

Test system: KRAS-mutant PDC complex spheroid viability
Experiment: Anticancer human tumor 186277-243-T-J2-PDC patient-derived colon adenocarcinoma cell line growth inhibition [KRAS2]
Settings: for IC50: curve of first compound; for viability, T/C: stronger effect = lower value
Method in brief: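 Combination screen of spheroid viability in tumor-cell co-cultures with endothelial (HUVEC) and mesenchymal stem cell stroma. Each agent was tested in half-log dilutions, topping at clinical Cmax or at 10 microM without a known Cmax.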

[1] = second compound 0.1 µM, first compound 0.01 µM
[2] = second compound 0.1 µM, first compound 0.0316 µM
[3] = second compound 0.1 µM, first compound 0.1 µM
[4] = second compound 0.1 µM, first compound 0.316 µM
[5] = second compound 0.1 µM, first compound 1 µM
[6] = second compound 0.1 µM, first compound 3.16 µM
[7] = second compound 0.316 µM, first compound 0.01 µM
[8] = second compound 0.316 µM, first compound 0.0316 µM
[9] = second compound 0.316 µM, first compound 0.1 µM
[10] = second compound 0.316 µM, first compound 0.316 µM
[11] = second compound 0.316 µM, first compound 1 µM
[12] = second compound 0.316 µM, first compound 3.16 µM
[13] = second compound 1 µM, first compound 0.01 µM
[14] = second compound 1 µM, first compound 0.0316 µM
[15] = second compound 1 µM, first compound 0.1 µM
[16] = second compound 1 µM, first compound 0.316 µM
[17] = second compound 1 µM, first compound 1 µM
[18] = second compound 1 µM, first compound 3.16 µM
[19] = second compound 3.16 µM, first compound 0.01 µM
[20] = second compound 3.16 µM, first compound 0.0316 µM
[21] = second compound 3.16 µM, first compound 0.1 µM
[22] = second compound 3.16 µM, first compound 0.316 µM
[23] = second compound 3.16 µM, first compound 1 µM
[24] = second compound 3.16 µM, first compound 3.16 µM
[25] = second compound 10 µM, first compound 0.01 µM
[26] = second compound 10 µM, first compound 0.0316 µM
[27] = second compound 10 µM, first compound 0.1 µM
[28] = second compound 10 µM, first compound 0.316 µM
[29] = second compound 10 µM, first compound 1 µM
[30] = second compound 10 µM, first compound 3.16 µM
[31] = second compound 0.1 µM, first compound 10 µM
[32] = second compound 0.316 µM, first compound 10 µM
[33] = second compound 1 µM, first compound 10 µM
[34] = second compound 3.16 µM, first compound 10 µM
[35] = second compound 10 µM, first compound 10 µM
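Throughout, for viability, T/C: viability read after seven days of compound exposure; 100% = DMSO vehicle-treated spheroids so lower means less viable.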

SMILES | IC50 (second compound 0.1 µM) | IC50 (second compound 0.316 µM) | IC50 (second compound 1 µM) | IC50 (second compound 3.16 µM) | IC50 (second compound 10 µM) | viability, T/C [2] | viability, T/C [3] | viability, T/C [4] | viability, T/C [5] | viability, T/C [8] | viability, T/C [9] | viability, T/C [10] | viability, T/C [11] | viability, T/C [14] | viability, T/C [15] | viability, T/C [16] | viability, T/C [17] | viability, T/C [20] | viability, T/C [21] | viability, T/C [22] | further results
CC1COCCN1c1cc(-c2ccnn2C)c2ccnc(-c3ccn[nH]3)c2n1 (stereo not given) + CNCc1ccccc1-c1csc(C(C)Nc2nc(C)nc3cc(OC)c(OC)cc23)c1 | 20 nM | 21.2 nM | 19.6 nM | < 10 nM | < 10 nM | 18.4% | 5.46% | 3.99% | 3.43% | 24.2% | 8.14% | 3.97% | 3.29% | 15.5% | 4.99% | 3.97% | 3.82% | 1.99% | 0.3% | 0.17% | viability, T/C [1]: 97.7%; viability, T/C [6]: 4.08%; viability, T/C [7]: 98.4%; viability, T/C [12]: 4.28%; viability, T/C [13]: 98.9%; viability, T/C [18]: 4.51%; viability, T/C [19]: 23.7%; viability, T/C [23]: 0.22%; viability, T/C [24]: 0.31%; viability, T/C [25]: 0.13%; viability, T/C [26]: 0.1%; viability, T/C [27]: 0.09%; viability, T/C [28]: 0.09%; viability, T/C [29]: 0.1%; viability, T/C [30]: 0.15%
CC1OCC2(CCN(c3cnc(Sc4ccnc(N)c4Cl)c(N)n3)CC2)C1N (stereo not given) + CNCc1ccccc1-c1csc(C(C)Nc2nc(C)nc3cc(OC)c(OC)cc23)c1 | > 10000 nM | > 10000 nM | > 10000 nM | 1520 nM | < 31.6 nM | 96.1% | 104% | 104% | 90.9% | 103% | 99.8% | 111% | 108% | 91.2% | 104% | 95% | 105% | 85.2% | 72.8% | 102% | viability, T/C [6]: 107%; viability, T/C [31]: 105%; viability, T/C [12]: 104%; viability, T/C [32]: 84.2%; viability, T/C [18]: 93.2%; viability, T/C [33]: 60.5%; viability, T/C [23]: 71.4%; viability, T/C [24]: 11.4%; viability, T/C [34]: 1.07%; viability, T/C [26]: 0.18%; viability, T/C [27]: 0.18%; viability, T/C [28]: 0.17%; viability, T/C [29]: 0.15%; viability, T/C [30]: 0.12%; viability, T/C [35]: 0.15%
CCN1CCN(Cc2ccc(Nc3ncc(F)c(-c4cc(F)c5nc(C)n(C(C)C)c5c4)n3)nc2)CC1 + CNCc1ccccc1-c1csc(C(C)Nc2nc(C)nc3cc(OC)c(OC)cc23)c1 | > 1000 nM | 970 nM | 687 nM | 115 nM | < 3.16 nM | 93% | 117% | 171% | 72.5% | 106% | 144% | 144% | 48.3% | 96.2% | 132% | 119% | 23.6% | 118% | 56% | 14% | viability, T/C (second compound 0.1 µM, first compound 0.00316 µM): 97.5%; viability, T/C [1]: 86.7%; viability, T/C (second compound 0.316 µM, first compound 0.00316 µM): 87%; viability, T/C [7]: 91.3%; viability, T/C (second compound 1 µM, first compound 0.00316 µM): 90%; viability, T/C [13]: 85.5%; viability, T/C (second compound 3.16 µM, first compound 0.00316 µM): 80.7%; viability, T/C [19]: 85.4%; viability, T/C [23]: 0.14%; viability, T/C (second compound 10 µM, first compound 0.00316 µM): 0.18%; viability, T/C [25]: 0.37%; viability, T/C [26]: 0.19%; viability, T/C [27]: 0.15%; viability, T/C [28]: 0.41%; viability, T/C [29]: 0.15%
CCNC(=O)CC1N=C(c2ccc(Cl)cc2)c2cc(OC)ccc2-n2c(C)nnc21 (stereo not given) + CNCc1ccccc1-c1csc(C(C)Nc2nc(C)nc3cc(OC)c(OC)cc23)c1 | > 10000 nM | > 10000 nM | 5550 nM | 379 nM | < 31.6 nM | 106% | 110% | 123% | 149% | 106% | 111% | 138% | 127% | 98.9% | 112% | 146% | 106% | 98.6% | 108% | 59.2% | viability, T/C [6]: 111%; viability, T/C [31]: 70.6%; viability, T/C [12]: 84.9%; viability, T/C [32]: 58.1%; viability, T/C [18]: 62.3%; viability, T/C [33]: 37.6%; viability, T/C [23]: 1.92%; viability, T/C [24]: 0.58%; viability, T/C [34]: 0.76%; viability, T/C [26]: 0.22%; viability, T/C [27]: 0.22%; viability, T/C [28]: 0.17%; viability, T/C [29]: 0.12%; viability, T/C [30]: 0.11%; viability, T/C [35]: 0.34%
Cn1nccc1Nc1nccc(-c2cc3c(s2)C(C)(C)N(CCN2CCOCC2)C3=O)n1 + CNCc1ccccc1-c1csc(C(C)Nc2nc(C)nc3cc(OC)c(OC)cc23)c1 | 293 nM | 304 nM | 205 nM | 91.7 nM | < 31.6 nM | 99.2% | 98.3% | 46.1% | 13.5% | 94.4% | 97.3% | 48.2% | 9.73% | 92% | 105% | 20.6% | 4.12% | 81.7% | 47.4% | 1.6% | viability, T/C [6]: 7.74%; viability, T/C [31]: 6.21%; viability, T/C [12]: 4.43%; viability, T/C [32]: 7.35%; viability, T/C [18]: 1.64%; viability, T/C [33]: 2.61%; viability, T/C [23]: 1.86%; viability, T/C [24]: 0.22%; viability, T/C [34]: 0.1%; viability, T/C [26]: 0.17%; viability, T/C [27]: 0.15%; viability, T/C [28]: 0.1%; viability, T/C [29]: 0.09%; viability, T/C [30]: 0.09%; viability, T/C [35]: 0.16%
